Experimental data as given in patent US20180325889A1, “IMMUNOREGULATORY AGENTS” (FLEXUS BIOSCIENCES, INC., priority 2014, published 2018).

Biological target: T1, human IDO1/HEK293 cells (Homo sapiens, UniProt P14902)
T1 construct: expressed in transfected cells
Assay: HEK Human IDO-1 cell-based IDO inhibition assay (kynurenine production)
Settings: HEK293 cells stably expressing human IDO1, 20 hours incubation, absorbance at 490 nm; read-out: HEK Human IDO-1 Bio Activity (IDO IC50)
Method: They were cultured in medium (DMEM with 10% FBS) containing 1 mg/ml G418 for two weeks.
The human IDO1/HEK293 cells were seeded at 10,000 cells per 50 μL per well with RPMI/phenol red free media contains 10% FBS in a 384-well black wall clear bottom tissue culture plate (Matrix Technologies LLC) 100 nL of certain concentration of compound was then added to each well using ECHO liquid handling systems. The cells were incubated for 20 hours in 37° C. incubator with 5% CO2.
The compound treatments were stopped by adding trichloroacetic acid (Sigma-Aldrich) to a final concentration at 0.2%. The cell plate was further incubated at 50° C. for 30 minute. The equal volume supernatant (20 μL) and 0.2% (w/v) Ehrlich reagent (4-dimethylaminobenzaldehyde, Sigma-Aldrich) in glacial acetic acid were mixed in a new clear bottom 384-well plate. This plate was then incubated at room temperature for 30 minute. The absorbance at 490 nm was measured on Envision plate reader.

T1 sequence (P14902 whole entry): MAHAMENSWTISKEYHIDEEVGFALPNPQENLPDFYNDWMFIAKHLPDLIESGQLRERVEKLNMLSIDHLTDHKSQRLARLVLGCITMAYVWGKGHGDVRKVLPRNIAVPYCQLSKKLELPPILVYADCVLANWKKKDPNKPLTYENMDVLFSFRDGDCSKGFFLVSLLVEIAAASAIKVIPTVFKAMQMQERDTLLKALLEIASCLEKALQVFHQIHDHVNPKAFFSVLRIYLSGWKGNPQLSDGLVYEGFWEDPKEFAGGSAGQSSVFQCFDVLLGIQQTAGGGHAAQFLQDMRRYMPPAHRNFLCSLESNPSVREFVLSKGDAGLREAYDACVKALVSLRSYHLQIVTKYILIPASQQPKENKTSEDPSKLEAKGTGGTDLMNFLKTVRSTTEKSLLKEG

| Structure (SMILES) | IC50 [nM] |
| --- | --- |
| CC(NC(=O)c1ccc(Cl)cc1)C1CCC(c2ccnc3ccnn23)CC1 (centres unmarked) [Example 197, 4-chloro-N-(1-(4-(pyrazolo[1,5-a]pyrimidin-7-yl)cyclohexyl)ethyl)benzamide] | < 250 |
| O=C(N[C@H]1CC[C@@H](c2ccnc3ccc(F)cc32)CC1)c1ccc(Cl)cc1 [Example 149, 4-chloro-N-(cis-4-(6-fluoroquinolin-4-yl)cyclohexyl)benzamide] | < 250 |
| C[C@@H](NC(=O)c1ccc(-c2ncc(C#N)s2)cc1)[C@H]1CC[C@@H](c2ccnc3ccc(F)cc32)CC1 [Example 253, 4-(5-cyanothiazol-2-yl)-N-((R)-1-((1s,4S)-4-(6-fluoroquinolin-4-yl)cyclohexyl)ethyl)benzamide] | < 50 |
| O=C(Nc1ccc(Cl)cc1)[C@H]1CC[C@H](c2ccnc3ccc(F)cc32)CC1 [Example 75, (trans)-N-(4-Chlorophenyl)-4-(6-fluoroquinolin-4-yl)cyclohexanecarboxamide] | < 250 |
| C[C@@H](NC(=O)c1ccccc1Cl)[C@H]1CC[C@@H](c2ccnc3ccc(F)cc32)CC1 [Example 56, 2-chloro-N-((R)-1-((1s,4S)-4-(6-fluoroquinolin-4-yl)cyclohexyl)ethyl)benzamide] | < 50 |
| CC(NC(=O)c1ccc(Cl)cc1)C1CCC(c2ccnc(C(F)(F)F)c2)CC1 (single isomer, unassigned) [Example 215, 4-chloro-N-(1-(4-(2-(trifluoromcthyl)pyridin-4-yl)cyclohcxyl)ethyl)benzamide] | < 2000 |
| O=C(Nc1ccc(F)cc1)NC1CCN(c2ccnc3ccc(F)cc23)CC1 [Example 93, 1-(4-Fluorophenyl)-3-(1-(6-fluoroquinolin-4-yl)piperidin-4-yl)urea] | < 2000 |
| Cc1ncc(-c2ccc(C(=O)N[C@H](C)[C@H]3CC[C@@H](c4ccnc5ccc(F)cc54)CC3)cc2)s1 [Example 238, N-((R)-1-((1s,4S)-4-(6-fluoroquinolin-4-yl)cyclohexyl)ethyl)-4-(2-methylthiazol-5-yl)benzamide] | < 50 |
| C[C@@H](NC(=O)c1ccc(-c2cscn2)cc1)[C@H]1CC[C@@H](c2ccnc3ccc(F)cc32)CC1 [Example 243, N-((R)-1-((1s,4S)-4-(6-fluoroquinolin-4-yl)cyclohcxyl)cthyl)-4-(thiazol-4-yl)benzamide] | < 50 |
| CCC(NC(=O)c1ccc(Cl)cc1)[C@H]1CC[C@H](Oc2ccnc3c(C(F)(F)F)cccc23)CC1 (stereo partly drawn) [Example 72, 4-Chloro-N-(1-((trans)-4-((8-(trifluoromethyl)quinolin-4-yl)oxy)cyclohexyl)propyl)benzamide] | < 2000 |
| CCC(NC(=O)c1ccc(Cl)cc1)C1CCC(c2cccc(C(F)F)n2)CC1 (single isomer, unassigned) [Example 231b, 4-chloro-N-(1-(4-(6-(difluoromethyl)pyridin-2-yl)cyclohexyl)propyl)benzamide] | < 2000 |
| C[C@@H](NC(=O)c1ccc(F)cc1)[C@H]1CC[C@@H](c2ccnc3ccc(F)cc32)CC1 [Example 60, 4-fluoro-N-((R)-1-((1s,4S)-4-(6-fluoroquinolin-4-yl)cyclohexyl)ethyl)benzamide] | < 50 |
| O=C(NCC1CCN(c2ccnc3ccc(F)cc23)CC1)c1ccc(Cl)cc1 [Example 88] | < 2000 |
| CC(NC(=O)c1ccc(Cl)cc1)C1CCC(c2ccnc(C(F)(F)F)c2)CC1 (single isomer, unassigned) [Example 214, 4-chloro-N-(1-(4-(2-(trifluorornethyl)pyridin-4-yl)cyclohexyl)ethyl)benzamide] | < 250 |
| C[C@@H](NC(=O)c1cccc(Cl)c1)[C@H]1CC[C@@H](c2ccnc3ccc(F)cc32)CC1 [Example 57, 3-chloro-N-((R)-1-((1s,4S)-4-(6-fluoroquinolin-4-yl)cyclohexyl)ethyl)benzamide] | < 50 |
| O=C(NCC1CCN(c2ccnc3ccc(F)cc23)CC1)c1cccc(Cl)c1 [Example 90] | < 2000 |
| Cc1cc(C2CCC(C(C)NC(=O)c3ccc(Cl)cc3)CC2)ccn1 (single isomer, unassigned) [Example 157e, 4-Chloro-N-(1-(4-(2-methylpyridin-4-yl)cyclohexyl)ethyl) Benzamide] | < 2000 |
| CC[C@@H](NC(=O)c1ccc(Cl)cc1)[C@H]1CC[C@@H](c2cnc3ccccc3c2)CC1 (single isomer, unassigned) [Example 203a] | < 2000 |
| CC1(CNC(=O)c2ccc(Cl)cc2)CCN(c2ccnc(C(F)(F)F)c2)CC1 [Example 227, 4-Chloro-N-((4-methyl-1-(2-(trifluoromethyl)pyridin-4-yl)piperidin-4-yl)methyl)benzamide] | < 2000 |
| CCC(NC(=O)c1ccc(C#N)cc1)C1CCC(c2ccnc3ccc(F)cc23)CC1 (single isomer, unassigned) [Example 165d, 4-Cyano-N-(1-(4-(6-fluoroquinolin-4-yl)cyclohexyl)propyl)benzamide] | < 50 |
| C[C@@H](NC(=O)c1ccc(-c2ccc(C(C)(C)O)cc2)cc1)[C@H]1CC[C@@H](c2ccnc3ccc(F)cc32)CC1 [Example 242, N-((R)-1-((1s,4S)-4-(6-fluoroquinolin-4-yl)cyclohexyl)ethyl)-4′-(2-hydroxypropan-2-yl)biphenyl-4-carboxamide] | < 250 |
| CC(NC(=O)c1ccc(Cl)cc1)C1CCC(c2ccnc(C(F)(F)F)c2)CC1 (single isomer, unassigned) [Example 212, 4-chloro-N-(1-(4-(2-(trifluoromcthyl)pyridin-4-yl)cyclohexyl)ethyl)benzamide] | < 2000 |
| C[C@@H](NC(=O)c1ccc(Cl)cc1)[C@H]1CC[C@@H](c2ccnc3ccc(F)cc32)CC1 [Example 47, 4-Chloro-N—((R)-1-((1 s,4S)-4-(6-fluoroquinolin-4-yl)cyclohexyl)ethyl)benzamide] | < 50 |
| CCC(NC(=O)c1ccc(Cl)cc1)C1CCC(c2cccc(C(F)F)n2)CC1 (single isomer, unassigned) [Example 231d, 4-chloro-N-(1-(4-(6-(difluoromethyl)pyridin-2-yl)cyclohexyl)propyl)benzamide] | < 2000 |
| C=CC[C@@H](NC(=O)c1ccc(Cl)cc1)[C@H]1CC[C@@H](c2ccnc3ccc(F)cc32)CC1 [Example 198, 4-chloro-N—((R)-1-((1s, 4S)-4-(6-fluoroquinolin-4-yl)cyclohexyl)but-3-en-1-yl) benzamide] | < 50 |
| O=C(Nc1ccc(F)cc1)N[C@H]1CC[C@H](c2ccnc3ccc(F)cc32)CC1 [Example 124, 1-(4-fluorophenyl)-3-(trans-4-(6-fluoroquinolin-4-yl)cyclohexyl)urea] | < 50 |
| CCC(NC(=O)c1ccc(-c2ccccc2)cc1)[C@H]1CC[C@@H](c2ccnc3ccc(C(F)(F)F)cc32)CC1 (mixture of isomers) [Example 230, N-(1-((1s,4s)-4-(6-(trifluoromethyl)quinolin-4-yl)cyclohexyl)propyl)biphenyl-4-carboxamide] | < 50 |
| Cc1cc(C2CCC(C(C)NC(=O)c3ccc(Cl)cc3)CC2)ccn1 (single isomer, unassigned) [Example 157b, 4-Chloro-N-(1-(4-(2-methylpyridin-4-yl)cyclohexyl)ethyl) Benzamide] | < 50 |
| COc1ccc(CN[C@H]2CC[C@H](c3ccccc3)CC2)cc1 [Example 97, trans-N-(4-Methoxybenzyl)-4-phenylcyclohexanamine] | < 250 |
